Results on eleven compounds are retold here after patent EP0510235A1, “Novel benzoxazine or benzothiazine derivatives and process for the preparation of the same” (DONG-A PHARM. CO., LTD., priority 1991, dated 1992).

SMILES strings stand for the structures. “And” between values parts separate entries of the source, which are not always exact repeats. Identical values can stand only once.

For series [1], the system named is blood-perfused sino-atrial preparation. As to the kind of experiment: Determination of sinus rate on blood-perfused sino-atrial preparation. Particulars: vs sinus rate prior to injection; for activation at 0.003 mg: dose 3.0 ug; for activation at 0.01 mg: dose 10.0 ug; for activation at 0.03 mg: dose 30.0 ug; for activation at 0.0001 mg: dose 0.1 ug; for change of sinus rate(%): listed as 8-methyl-6-(4-met-hylimidazol-1-)-( 4H)-3,1-benzothia-zin-2-one. Set-up: species or system dog. The protocol:
Mongrel dogs of either sex weighing 7-12kg were anesthetized with sodium pentoba rbital(30mg/kg i.v.). Heparin of 1000 unit/kg was administered to each animal intravenously and the animals were exsanguinated. Heart was removed and put in Krebs-Henselelt solution. Catheter was inserted into blood vessel between right coronary artery and SA nodes. Right artrium and catheter were together removed. Blood supplied from carotid artery of donor dog of either sex weighing 15-25kg, was supplied to blood vessel cather from right coronary artery and SA node under constant blood pressure of 100mmHg by use of Peristaltic pump. The resting tension of right atrial muscle was made to 2g. The sinus rate triggered by spontaneous contraction of atrial muscle was determined on Narco physiograph(Narcotrace 4). Detailed method was reported by S. Chiba, et al. in Japanese Pharmacology 25, 433-439(1975). Doses of test compounds were injected into flowing blood in gum tube connected to the near part of the catheter inserted into right coronary artery. The effects on sinus rate were shown as percent compared with the sinus rate prior to the injection of the test compounds.

For series [2], the system named is blood perfused papillary muscle preparation. As to the kind of experiment: Determination of contractile power on blood perfused papillary muscle preparation. Also noted: species or system dog. Conditions: for ED 30: dose giving 30% increase of developed tension, least-square method. The protocol:
Dogs of either sex weighing 7-12kg were anesthetized with sodium pentobarbital (30mg/kg,i.v.). Heparin of 1000 unit/kg was administered to each animal intravenously. The animals were exsanguinated and heart was removed. The preparation was perfused through the cannulated anterior septal artery(ASA) with arterial blood from a donor dog at constant pressure of about 100 mmHg. Donor dogs were anesthetized with sodium pentobarbital (30mg/kg, i.v.). Heparin of 1000 units/kg was administered intravenously. The papillary muscle was stimulated with rectangular pulses of 5- ms duration and about 1.5 times the threshold voltage at a rate of 120 stimuli/min through bipolar electrodes.Resting tension was made to 2 g.The developed tension of papillary muscle was determined by Isometric tresducer.Detailed method was reported by Matsumoto in Am. J. Physiol. 218, 1459-1463 (1970). Test compound at the doses of 10-30ul was injected in flowing blood in the gum tube connected to catheter. The inotropic effect of the test compounds was shown by change percent of developed tension compared with that prior to the administration of the test compounds.ED₃₀ value was determined by least-square method and the results were shown in the Table 1.

Series [3] addresses cyclic AMP phosphodiesterase. Nature of the series: Effect on cyclic AMP phosphodiesterase isolated from dog's heart. The series is classed as biochemical. Conditions: substrate 1.0 uM; for Inhibitory effect on PDE activity: values fall with concentration. How it is done:
Dogs weighing 10 kg were anesthetized with sodium pentobarbital and heparin was administered intravenously. Heart was removed. Two to four grams of left ventricular muscle was obtained and the tissue was rinsed in ice-cold salin. Left ventricular muscle was homogenized in10 volumes of homogenzing buffer(Tris-HCl, pH 7.8). Homogenate was then centrifuged at 100,000 X g for 40 minutes, after which the supernatent was removed. The pellet was resuspended in homogenizing buffer, centrifuged as before and the supernatent obtained as discarded. The pellet was resuspended in 10 volumes of homogenizing buffer containing Triton X-100 and Brij 30, and incubated overnight at 4°C. The detergent-extracted proteins were then separated by centrifugation at 100,000 X g for 40 monutes. The detergent-extracted protein was dialyzed against 70mM sodium acetate /5mM 2-mercaptoethanol(pH 6.5) for 5 hours. The dialyzed extract was applied to a DEAE-cellulose column and eluted using a 70-1000 mM sodium acetate gradient. Appropriate fractions were pooled and concentrated using Amicon ultrafiltration cell. Following concentration, the protein was diluted with ethylene glycol and stored at -20°C.
Phosphodiesterase activity was measured in a reaction medium (40mM Tris-HCl, pH 8.0). The concentration of substrate was 1.0 uM. The IC 50 values( concentration which produced 50% inhibition of substrate hydrolysis) for the various compounds examined were determined from concentration-response curves. Detailed method of this experiment was reported in J.Mol.Cell Cardiol. 19, 1025-1036 (1987).

Series [4] in a line: Acute toxicity test in rats, oral. Conditions: rat, in vivo. The protocol:
Acute toxicity test of 6-(4-methylimidazol-1-yl)-(4H)-3,1-benzoxazin-2-one was conducted in Spraque-Dawley rats. The test compound was suspended in 5% arabic gum and was administered orally to six rats at a dose of 300mg/kg body weight.
Accordingly, LD 50 of the compound is 300 mg/kg or more.

Series [5] can be described thus: Acute toxicity test in ICR mouse, intravenous. Conditions: in vivo. The protocol:
Acute toxicity test of 6-(4-methylimidazol-1-yl)-(4H)-3,1-benzothiazin-2-one was conducted in ICR mouse. The test compound was dissolved in a mixed solvent of saline and DMF (2:1) and was administered intraveneously to five mice at a dose of 30mg/kg body weight. […] Accordingly, LD₅₀ of the cmpound is 30mg/kg or more.

Series [6] is described as follows: Acute toxicity test in mice, oral. Particulars: mouse, in vivo. The protocol:
Acute toxicity test of 6-(4-methylimidazol-1-yl)-(4H)-3,1-benzothiazine-2-thione was conducted in BALB/C mice. The test compound was suspended in 5% arabic gum solution and administered orally to five mice at a dose of 200 mg/kg body weight by gastric tubing. […] Accordingly, LD₅₀ of the compound is 200mg/kg or more.

Where [7] appears, read: Canis lupus familiaris, dose 1.0 ug, read-out: change of sinus rate(%).
Where [8] appears, read: Canis lupus familiaris, read-out: change of sinus rate(%).
Where [9] appears, read: at the ED 30 dose (30% by definition).

Take `Cc1cn(-c2ccc3c(c2)COC(=O)N3)c(C)n1` [6-(2,4-dimethylimidzol-1-yl)-(4H)-3,1-benzoxazin-2-one]: in series [1] (setting [7]), the activation at 0.001 mg stood at 0%. In series [1] (setting [8]), the activation at 0.003 mg was found to be 0%, the activation at 0.01 mg turned out to be 0% and the activation at 0.03 mg was found to be 1.67%. In addition, in series [2], the “ED 30” value was “ED 30 : 81.89 ug”.
Turning to `CCc1nc(C)cn1-c1ccc2c(c1)COC(=O)N2` [6-(2-ethyl-4-methylimidazol-1-yl)-(4H)-3,1-benzoxazin-2-one], the activation at 0.001 mg in series [1] (setting [7]) came out at 0%. In series [1] (setting [8]), the activation at 0.003 mg amounted to 0%, the activation at 0.01 mg is 0.83% and the activation at 0.03 mg stood at 1.65%. In addition, the “ED 30” value in series [2] was “ED 30 : 269 ug”.
As for `Cc1nccn1-c1ccc2c(c1)COC(=O)N2` [6-(2-methylimidazol-1-yl)-(4H)-3,1-benzoxazine-2-one], the activation at 0.001 mg in series [1] (setting [7]) was found to be 0%. Moreover, in series [1] (setting [8]), the activation at 0.003 mg came to 0%, the activation at 0.01 mg stood at 0.86% and the activation at 0.03 mg was found to be 3.42%. Also, the “ED 30” value in series [2] is listed as “ED 30 > 1000 ug”.
What is called IC50 is the concentration at which inhibition is half-maximal. The low end stands for greater potency, the high end for weaker potency. A word on the LD50: it is the dose expected to kill half of the subjects tested. Higher therefore signals lower toxicity. Take `Cc1cn(-c2ccc3c(c2)COC(=O)N3)cn1` [6-(4-methylimidazol-1-yl)(4H)-3,1-benzoxazin-2-one]: the activation at 0.001 mg in series [1] (setting [7]) came to 0%. The activation at 0.003 mg in series [1] (setting [8]) turned out to be 2.52%. The activation at 0.01 mg in series [1] (setting [8]) was 5.04%. Besides, in series [2], the “ED 30” value is recorded as “ED 30 : 10.4 ug”. The same compound came in with a half-maximal inhibitory concentration (IC50) in series [3] (50% inhibition of substrate hydrolysis) of 12.8 µM. Also, the “Inhibitory effect on PDE activity” value in series [3] (test compound 0.1 uM) amounted to 95.1; in series [3] (test compound 1 uM), 77.5; in series [3] (test compound 10 uM), 51.7; in series [3] (test compound 100 uM), 35.8. Also, in series [4], the 50% lethal dose (LD50) was not below 300 mg/kg.
For the compound `Cc1cn(-c2ccc3c(c2)CSC(=O)N3)cn1` [6-(4-methylimidazol-1-yl)-(4H)-3,1-benzothiazin-2-one], in series [1] (setting [8]), the activation at 0.003 mg stood at 2.3%. Besides, the activation at 0.03 mg in series [1] (setting [8]) turned out to be 5.6%. Moreover, the “change of contractivity(%)” value in series [2] (setting [9]) is 30%; in series [2] (dose 1.0 ug injected into perfusing blood, developed tension vs before administration), 0.0%; in series [2] (dose 3.0 ug injected into perfusing blood, developed tension vs before administration), 7.2% and 1.5%; in series [2] (dose 10.0 ug injected into perfusing blood, developed tension vs before administration), 20.5% and 11.5%; in series [2] (dose 30.0 ug injected into perfusing blood, developed tension vs before administration) it was 30.7% and 23.3%. The compound further returned an LD50 in series [5] not below 30 mg/kg.
With `Cc1cn(-c2ccc3c(c2)CSC(=S)N3)cn1` [6-(4-methylimidazol-1-yl)-(4H)-3,1-benzothiazine-2-thione], the LD50 in series [6] was not below 200 mg/kg.
Turning to `O=C1Nc2ccc(-n3cnc4ccccc43)cc2CO1` [6-(benzimidazol-1-yl)-(4H)-benzoxazin-2-one], the activation at 0.001 mg in series [1] (setting [7]) came out at 0%. The activation at 0.003 mg in series [1] (setting [8]) amounted to 0%. Moreover, the activation at 0.01 mg in series [1] (setting [8]) was 0.3%. In addition, the activation at 0.03 mg in series [1] (setting [8]) was determined as 0.75%. For the same compound, the “ED 30” value in series [2] is “ED 30 > 1000 ug”. Further, the “Inhibitory effect on PDE activity” value in series [3] (test compound 0.1 uM, listed as 6-(benzimidazol-1-yl)-(4H)-3,1-benzoxazin-2-one) was determined as 95.5; in series [3] (test compound 1 uM, listed as 6-(benzimidazol-1-yl)-(4H)-3,1-benzoxazin-2-one), 90.4; in series [3] (test compound 10 uM, listed as 6-(benzimidazol-1-yl)-(4H)-3,1-benzoxazin-2-one), 72.3; in series [3] (test compound 100 uM, listed as 6-(benzimidazol-1-yl)-(4H)-3,1-benzoxazin-2-one) it was 49.5.
Turning to `O=C1Nc2ccc(-n3ccnc3)cc2CS1` [6-(imidazol-1-yl)-(4H)-3,1-benzothiazin-2-one], the “change of contractivity(%)” value in series [2] (setting [9]) is listed as 30%.
With `O=C1Nc2ccc(-n3ccnc3)cc2CO1` [6-(imidazol-1-yl)-(4H)-3,1-benzoxazin-2-one], in series [1] (setting [7]), the activation at 0.001 mg was found to be 0%. Moreover, in series [1] (setting [8]), the activation at 0.003 mg was found to be 0.84%. Further, in series [1] (setting [8]), the activation at 0.01 mg was determined as 2.52%. Besides, the activation at 0.03 mg in series [1] (setting [8]) came out at 6.67%. Further, in series [2], the “ED 30” value is listed as “ED 30 > 1000 ug”. Further, the “Inhibitory effect on PDE activity” value came out at 98.4 in series [3] (test compound 0.1 uM), 74.5 in series [3] (test compound 1 uM), 52.2 in series [3] (test compound 10 uM) and 28.8 in series [3] (test compound 100 uM).
`Cc1cn(-c2cc(C)c3c(c2)CSC(=O)N3)cn1` [8-methyl-6-(4-methylimidazol-1-yl)-(4H)-3,1-benzothiazin-2-one]: the activation at 0.0001 mg in series [1] (setting [8]) worked out at 1.7%. In addition, the activation at 0.003 mg in series [1] (setting [8]) was 3.3%. Moreover, the figures for the “change of sinus rate(%)” value in series [1] (dose 0.3 ug) and in series [1] (dose 1.0 ug) were 4.8% and 8.3%, respectively. Besides, the “change of contractivity(%)” value in series [2] (setting [9]) came to 30.0%. Also, the “ED 30” value is recorded as “ED 30 = 5.0 ug” in series [2] and “ED 30 = 0.6 ug” in series [2] (listed as 8-methyl-6-(4-met-hylimidazol-1-)-( 4H)-3,1-benzothia-zin-2-one).
Take `Cc1cn(-c2cc(C)c3c(c2)COC(=O)N3)cn1` [8-methyl-6-(4-methylimidazol-1-yl)-(4H)-3,1-benzoxazin-2-one]: in series [1] (setting [8]), the activation at 0.0001 mg came out at 0.8% and the activation at 0.003 mg came out at 5.8%. Besides, the activation at 0.0003 mg in series [1] (Canis lupus familiaris, dose 0.3 ug, read-out: change of sinus rate(%)) amounted to 1.7%. Moreover, the activation at 0.001 mg in series [1] (setting [7]) is 6.6%. For the same compound, the “change of contractivity(%)” value in series [2] (setting [9]) is on record as 30.0%. In addition, the “ED 30” value in series [2] is “ED 30 = 1.2 ug”.
